Values of other authors, collected in patent EP2221049A2, “SOLID PHARMACEUTICAL COMPOSITION OF DED ANOSINE” (Blanver Farmoquimica, LTDA, priority 2007, dated 2009).

Conditions: pH below 3, 37°C

time period in which 10% of didanosine is decomposed to hypoxanthine: < 2 min
SMILES: OC[C@@H]1CC[C@H](n2cnc3c(O)ncnc32)O1 [didanosine, 2',3'-dideoxyinosine]
